Here are results for 13 compounds from ChEMBL document CHEMBL1149440, “Indol-1-yl acetic acids as peroxisome proliferator-activated receptor agonists: design, synthesis, structural biology, and molecular docking studies” (J Med Chem, 2006).

Assay [1] addresses T1, Peroxisome proliferator-activated receptor delta (Homo sapiens, UniProt Q03181).
T1 sequence (Q03181 whole entry): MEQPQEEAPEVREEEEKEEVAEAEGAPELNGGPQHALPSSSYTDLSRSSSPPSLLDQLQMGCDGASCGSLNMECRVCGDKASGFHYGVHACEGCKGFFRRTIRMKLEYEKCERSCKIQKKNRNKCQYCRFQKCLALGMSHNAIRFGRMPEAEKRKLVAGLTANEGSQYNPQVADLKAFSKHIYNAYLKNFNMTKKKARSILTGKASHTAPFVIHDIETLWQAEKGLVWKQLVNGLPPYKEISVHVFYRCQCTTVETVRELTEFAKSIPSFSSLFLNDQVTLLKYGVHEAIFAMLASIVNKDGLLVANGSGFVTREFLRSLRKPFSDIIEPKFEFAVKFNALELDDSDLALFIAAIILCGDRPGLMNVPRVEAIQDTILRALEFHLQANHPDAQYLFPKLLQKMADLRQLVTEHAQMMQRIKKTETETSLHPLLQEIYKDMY

For assay [2], the target named is T2, Peroxisome proliferator-activated receptor alpha (Homo sapiens, UniProt Q07869).
T2 sequence (Q07869 whole entry): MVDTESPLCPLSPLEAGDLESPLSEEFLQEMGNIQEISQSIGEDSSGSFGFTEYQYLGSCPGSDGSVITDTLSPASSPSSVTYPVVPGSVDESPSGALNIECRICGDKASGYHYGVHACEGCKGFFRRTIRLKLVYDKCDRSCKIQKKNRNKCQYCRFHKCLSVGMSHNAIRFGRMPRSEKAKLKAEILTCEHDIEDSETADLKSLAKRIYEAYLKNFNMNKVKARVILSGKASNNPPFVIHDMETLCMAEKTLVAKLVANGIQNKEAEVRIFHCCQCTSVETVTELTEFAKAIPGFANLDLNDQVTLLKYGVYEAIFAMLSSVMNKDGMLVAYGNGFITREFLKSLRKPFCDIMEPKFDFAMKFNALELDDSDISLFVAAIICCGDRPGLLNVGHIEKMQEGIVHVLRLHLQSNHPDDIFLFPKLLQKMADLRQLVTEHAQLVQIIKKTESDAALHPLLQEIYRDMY
The assay is classed as functional, cell-based, Huh-7.

Assay [3] addresses T2, Peroxisome proliferator-activated receptor alpha.
For assay [4], the target named is T1, Peroxisome proliferator-activated receptor delta. The assay is classed as functional, cell-based, Huh-7.

`CCCc1c(OCCCOc2ccc3ccn(CC(=O)O)c3c2)ccc2cc(C(=O)c3ccccc3)ccc12`: the IC50 in assay [1] was 2400 nM; in assay [3], 4490 nM. Also, the figures for the EC50 in assay [2] and in assay [4] were 2480 nM and 4900 nM, respectively.

On to `CCCc1cc(C(=O)c2ccc(F)cc2)ccc1OCCCOc1cccc2c1ccn2CC(=O)O`, for which the values for the half-maximal inhibitory concentration (IC50) in assay [1] and in assay [3] were 3260 nM and 414 nM, respectively. The EC50 amounted to 773 nM in assay [2] and 4000 nM in assay [4].

With `CCCc1c(OCCCOc2ccc3c(ccn3CC(=O)O)c2)ccc2cc(C(=O)c3ccccc3)ccc12`, the EC50 in assay [2] came to 8 nM. The compound also returned an IC50 in assay [3] of 113 nM.

In turn, `CCCc1cc(C(=O)c2ccc(F)cc2)ccc1OCCCOc1ccc2c(ccn2CC(=O)O)c1` displayed an EC50 in assay [2] of 50 nM. The same compound gave a concentration for half-maximal inhibition (IC50) in assay [3] of 470 nM.

As to `CCCc1c(OCCCOc2cccc3c2ccn3CC(=O)O)ccc2cc(C(=O)c3ccccc3)ccc12`, the concentration for half-maximal inhibition (IC50) turned out to be 5380 nM in assay [1] and 578 nM in assay [3]. For the same compound, the EC50 is 19 nM in assay [2] and above 10000 nM in assay [4].

As to `CCCc1c(OCCCOc2ccc3c(ccn3CC(=O)O)c2)ccc2c(C(F)(F)F)noc12`, half-maximal inhibition in assay [3] (IC50) required 496 nM.

Take `CCCc1cc(C(=O)c2ccc(F)cc2)ccc1OCCCOc1ccc2ccn(CC(=O)O)c2c1`: the values for the concentration for half-maximal inhibition (IC50) in assay [1] and in assay [3] were 7620 nM and 1050 nM, respectively. The EC50 was above 10000 nM in assay [2] and 5290 nM in assay [4].

In the case of `O=C(O)Cn1ccc2ccc(OCCCOc3ccc4cc(C(=O)c5ccccc5)ccc4c3)cc21`, the IC50 in assay [1] was determined as 2570 nM; in assay [3], 4490 nM. The EC50 in assay [2] and in assay [4] was above 10000 nM throughout.

Take `O=C(O)Cn1ccc2cc(OCCCOc3ccc(C(=O)c4ccc(F)cc4)cc3)ccc21`: the IC50 in assay [1] and in assay [3] was above 10000 nM in each case. Besides, the 50% effective concentration (EC50) in assay [2] and in assay [4] was above 10000 nM each time.

As to `O=C(O)Cn1ccc2ccc(OCCCOc3ccc(C(=O)c4ccc(F)cc4)cc3)cc21`, the IC50 came out at 3150 nM in assay [1] and 116 nM in assay [3]. Further, the concentration giving a half-maximal response (EC50) in assay [2] was 765 nM; in assay [4], 4350 nM.

As for `O=C(O)Cn1ccc2c(OCCCOc3ccc(C(=O)c4ccc(F)cc4)cc3)cccc21`, the IC50 in assay [1] was above 10000 nM; in assay [3] it was 1020 nM. For the same compound, the concentration giving a half-maximal response (EC50) in assay [2] and in assay [4] was above 10000 nM throughout.

On to `O=C(O)Cn1ccc2c(OCCCOc3ccc4cc(C(=O)c5ccccc5)ccc4c3)cccc21`, for which the concentration for half-maximal inhibition (IC50) was above 10000 nM in assay [1] and 1080 nM in assay [3]. The EC50 in assay [2] and in assay [4] was above 10000 nM each time.

As to `O=C(O)Cn1ccc2cc(OCCCOc3ccc4cc(C(=O)c5ccccc5)ccc4c3)ccc21`, the half-maximal inhibitory concentration (IC50) in assay [1] was found to be 4430 nM; in assay [3], 484 nM. Besides, the EC50 in assay [2] was determined as 270 nM; in assay [4] it was 5600 nM.
